For one assay, the target named is Escherichia coli DNA gyrase A/B tetramer (Escherichia coli (strain K12), UniProt P0AES4+P0AES6). The assay is described as follows: DNA gyrase supercoiling activity fluorescence polarisation assay. It counts as biochemical.
Conditions: not given
Here is the method: DNA Gyrase Supercoiling Activity Fluorescence Polarisation Assay
The supercoiling reactions may be quenched by the addition of 10 microliters/well of 40 nM oligodeoxynucleotide probe in 3× triplex-forming buffer consisting of 150 mM NaCl, and 150 mM sodium acetate at pH 3.5. The oligodeoxynucleotide probe may be 5′-BODIPY-FL-labeled […]. After 60 minutes, the fluorescence anisotropy of the BODIPY-FL may be measured in a Tecan Ultra plate reader, using 485 nm excitation and 535 nm emission filters equipped with polarizers. The IC50 may be determined by nonlinear regression using two control reactions. The first contains no test compound but 0.8% DMSO (100% activity) while the second control reaction contains 5 μM Ciprofloxacin and 0.8% DMSO (0% activity).
A general note: Fluorescence polarisation rises when a labelled molecule tumbles more slowly, as on binding a larger partner.
With `C[C@@H]1CN2c3c(cc4c(-n5cncn5)noc4c3F)CC3(C(=O)NC(=O)NC3=O)[C@H]2[C@H](C)O1` (racemic) [Example 53, (2R,4S,4 aS)-rel-11-fluoro-2,4-dimethyl-8-(1H-1,2,4-triazol-1-yl)-1,2,4,4a-tetrahydro-2′H,6H-spiro[1,4-oxazino[4,3-a][1,2]oxazolo[4,5-g]quinoline-5,5′-pyrimidine]-2′,4′,6′(1′H,3′H)-trione], the IC50 (usually the concentration needed to halve the response being measured) was 2.8 µM.

The same assay, now with this note: 5 nM enzyme, relaxed plasmid, 0.3 mM ATP, ambient temperature; read-out: E. coli DNA gyrase supercoiling IC50.
Take `C[C@@H]1CN2c3c(cc4c(NCc5ccccc5)noc4c3F)CC3(C(=O)NC(=O)NC3=O)[C@H]2[C@H](C)O1` (racemic) [Example 9, (2R,4S,4 aS)-rel-8-(benzylamino)-11-fluoro-2,4-dimethyl-1,2,4,4a-tetrahydro-2′H,6H-spiro[1,4-oxazino[4,3-a][1,2]oxazolo[4,5-g]quinoline-5,5′-pyrimidine]-2′,4′,6′(1′H,3′H)-trione]: the IC50 stood at 1.7 µM.
With `C[C@@H]1CN2c3c(cc4c(NCc5ccccn5)noc4c3F)CC3(C(=O)NC(=O)NC3=O)[C@H]2[C@H](C)O1` (racemic) [Example 14, (2R,4 S,4aS)-rel-11-fluoro-2,4-dimethyl-8-[(pyridin-2-ylmethyl)amino]-1,2,4,4a-tetrahydro-2′H,6H-spiro[1,4-oxazino[4,3-a][1,2]oxazolo[4,5-g]quinoline-5,5′-pyrimidine]-2′,4′,6′(1′H,3′H)-trione], the IC50 was found to be 2 µM.
Regarding `C[C@@H]1CN2c3c(cc4c(-n5cc(I)cn5)noc4c3F)CC3(C(=O)NC(=O)NC3=O)[C@H]2[C@H](C)O1` (racemic) [Example 36, (2R,4S,4 aS)-rel-11-fluoro-8-(4-iodo-1H-pyrazol-1-yl)-2,4-dimethyl-1,2,4,4a-tetrahydro-2′H,6H-spiro[1,4-oxazino[4,3-a][1,2]oxazolo[4,5-g]quinoline-5,5′-pyrimidine]-2′,4′,6′(1′H,3′H)-trione], the half-maximal inhibitory concentration (IC50) amounted to 2.1 µM.
As to `C[C@@H]1CN2c3c(cc4c(C5CC5)noc4c3Cl)CC3(C(=O)NC(=O)NC3=O)[C@H]2[C@H](C)O1` (racemic) [Example 39, (2R,4S,4 aS)-rel-11-chloro-8-cyclopropyl-2,4-dimethyl-1,2,4,4a-tetrahydro-2′H,6H-spiro[1,4-oxazino[4,3-a][1,2]oxazolo[4,5-g]quinoline-5,5′-pyrimidine]-2′,4′,6′(1′H,3′H)-trione], the half-inhibitory concentration (IC50) amounted to 0.6 µM.
Turning to `C[C@@H]1CN2c3c(cc4c(-c5ncccn5)noc4c3Cl)CC3(C(=O)NC(=O)NC3=O)[C@H]2[C@H](C)O1` (racemic) [Example 42, (2R,4S,4 aS)-rel-11-chloro-2,4-dimethyl-8-(pyrimidin-2-yl)-1,2,4,4a-tetrahydro-2′H,6H-spiro[1,4-oxazino[4,3-a][1,2]oxazolo[4,5-g]quinoline-5,5′-pyrimidine]-2′,4′,6′(1′H,3′H)-trione], the half-maximal inhibitory concentration (IC50) was found to be 1.2 µM.
As to `C[C@@H]1CN2c3c(cc4c(-c5cncnc5)noc4c3Cl)CC3(C(=O)NC(=O)NC3=O)[C@H]2[C@H](C)O1` (racemic) [Example 44, (2R,4S,4 aS)-rel-11-chloro-2,4-dimethyl-8-(pyrimidin-5-yl)-1,2,4,4a-tetrahydro-2′H,6H-spiro[1,4-oxazino[4,3-a][1,2]oxazolo[4,5-g]quinoline-5,5′-pyrimidine]-2′,4′,6′(1′H,3′H)-trione], the concentration for half-maximal inhibition (IC50) was 1 µM.
Still for that read-out and setting: as for `C[C@@H]1CN2c3c(cc4c(-n5nccn5)noc4c3F)CC3(C(=O)NC(=O)NC3=O)[C@H]2[C@H](C)O1` (racemic) [Example 56, (2R,4S,4 aS)-rel-11-fluoro-2,4-dimethyl-8-(2H-1,2,3-triazol-2-yl)-1,2,4,4a-tetrahydro-2′H,6H-spiro[1,4-oxazino[4,3-a][1,2]oxazolo[4,5-g]quinoline-5,5′-pyrimidine]-2′,4′,6′(1′H,3′H)-trione], the figure is 0.7 µM.
